Measurements from EP0351597A2, “"N15-alkyl and N15,N15-di-alkyl derivatives of teicoplanin antibiotics carrying functional groups on the alkyl side chain” (GRUPPO LEPETIT S.p.A., priority 1988, dated 1990).
Converted amounts (≈) assume the structure as drawn. Like-named read-outs stand apart in the source and are kept apart here.

How the values were obtained:
S. pyogenes L 49 = assay: In vivo test in mice experimentally infected with S. pyogenes L 49 (ED50)
Procedure: The ED₅₀ values (mg/Kg) of representative compounds of the invention in vivo tests in mice experimentally infected with S. pyogenes L 49 and reported in Table V were carried out according to the procedure described by V. Arioli et al., Journal of Antibiotics 29, 511 (1976).

S. aureus Tour = assay: In vitro antibacterial activity (MIC), standard dilution test; format: cell-based
Text: Isosensitest broth (Oxoid) and Todd-Hewitt broth (Difco) are used for growing staphylococci and streptococci, respectively. […]

Acid-base titration = format: physicochemical; details: Methylcellosolve/H₂O, 4/1 (v/v); titrated with 0.01 N NaOH after adding 0.01 N HCl
[1] = test system: P. vulgaris X19H ATCC 881; assay: In vitro antibacterial activity (MIC), standard dilution test; format: cell-based
[2] = test system: S. epidermidis ATCC 12228; assay: as above; format: cell-based
Procedure: (§1) Isosensitest broth (Oxoid) and Todd-Hewitt broth (Difco) are used for growing staphylococci and streptococci, respectively. Broth cultures are diluted so that the final inoculum is about 10⁴ colony forming units/ml (CFU/ml).

S. pyogenes C203 = assay: as above; format: cell-based
Procedure: as §1

S. pneumoniae UC41 = assay: as above; format: cell-based
Procedure: as §1

S. haemolyticus L 602 = assay: as above; format: cell-based
Procedure: as §1

S. faecalis ATCC 7080 = assay: as above; format: cell-based
Procedure: as §1

E. coli SKF 12140 = assay: as above; format: cell-based
P. aeruginosa ISM = assay: as above; format: cell-based
[3] = Streptococcus pyogenes, L49, sc, S. pyogenes L 49, s.c., read-out: ED50
[4] = Staphylococcus aureus, S. aureus Tour 10^4, read-out: MIC
[5] = Staphylococcus aureus, S. aureus Tour 10^6, read-out: MIC
[6] = Staphylococcus aureus, S. aureus Tour + 30% bovine serum, read-out: MIC
[7] = Proteus vulgaris, ATCC881, read-out: MIC
[8] = Staphylococcus epidermidis, ATCC12228, read-out: MIC
[9] = Streptococcus pyogenes, read-out: MIC
[10] = Streptococcus pneumoniae, read-out: MIC
[11] = Enterococcus faecalis, ATCC7080, read-out: MIC
[12] = Escherichia coli, SKF12140, read-out: MIC
[13] = Pseudomonas aeruginosa, read-out: MIC
[14] = Staphylococcus haemolyticus, L602, S. haemolyticus L 602, no visible growth after 18-24 h at 37°C, inoculum about 10⁴ CFU/ml, read-out: MIC
[15] = S. aureus Tour + 30% bovine serum
[16] = S. haemolyticus L 602, no visible growth after 18-24 h at 37°C, inoculum about 10⁴ CFU/ml

Compound | ED50 (S. pyogenes L 49; [3]) [mg/kg] | MIC (S. aureus Tour; [4]) [µg/mL] | MIC (S. aureus Tour; [5]) [µg/mL] | MIC (S. aureus Tour; [6]) [µg/mL] | pK₁ (Acid-base titration) | pK₂ (Acid-base titration) | MIC [1, 7] [µg/mL] | MIC [2, 8] [µg/mL] | MIC (S. pyogenes C203; [9]) [µg/mL] | MIC (S. aureus Tour; S. aureus Tour 10^4) [microgram/ml] | MIC (S. aureus Tour; S. aureus Tour 10^6) [microgram/ml] | MIC (S. aureus Tour; [15]) [microgram/ml] | MIC [1] [microgram/ml] | MIC [2] [microgram/ml] | MIC (S. pyogenes C203) [microgram/ml] | MIC (S. pneumoniae UC41) [microgram/ml] | MIC (S. haemolyticus L 602; [16]) [microgram/ml] | MIC (S. faecalis ATCC 7080) [microgram/ml] | MIC (E. coli SKF 12140) [microgram/ml] | MIC (P. aeruginosa ISM) [microgram/ml] | also measured
CN(C)CCNC1C(=O)NC2Cc3ccc(c(Cl)c3)Oc3cc4cc(c3O)Oc3ccc(cc3Cl)C(O)C3NC(=O)C(NC(=O)C4NC(=O)C(NC2=O)c2cc(O)cc(c2)Oc2cc1ccc2O)c1ccc(O)c(c1)-c1c(O)cc(O)cc1C(C(=O)O)NC3=O (stereo not drawn) [Compound 5, N¹⁵-(2-dimethylamino)ethyl teicoplanin aglycon] | 1.25 | 0.125 (≈ 0.0984 µM) | 0.125 (≈ 0.0984 µM) | 1 | 4.75 | 6.5 | > 128 | 0.06 (≈ 0.0472 µM) | 0.25 (≈ 0.197 µM) |  |  |  |  |  |  |  |  |  |  |  | MIC (S. pneumoniae UC41; [10]): 0.125 µg/mL (≈ 0.0984 µM); MIC (S. haemolyticus L 602; Staphylococcus haemolyticus, L602): 0.5 µg/mL (≈ 0.394 µM); MIC (S. faecalis ATCC 7080; [11]): 0.25 µg/mL (≈ 0.197 µM); MIC (E. coli SKF 12140; [12]): > 128 µg/mL; MIC (P. aeruginosa ISM; [13]): > 128 µg/mL
CC(CO)NC1C(=O)NC2Cc3ccc(c(Cl)c3)Oc3cc4cc(c3O)Oc3ccc(cc3Cl)C(O)C3NC(=O)C(NC(=O)C4NC(=O)C(NC2=O)c2cc(O)cc(c2)Oc2cc1ccc2O)c1ccc(O)c(c1)-c1c(O)cc(O)cc1C(C(=O)O)NC3=O (stereo not drawn) [Compound 7, N¹⁵-(1-methyl-2-hydroxy)ethyl teicoplanin aglycon] | 0.84 | 0.06 (≈ 0.0477 µM) | 0.12 (≈ 0.0955 µM) | 1 |  |  | > 128 | 0.06 (≈ 0.0477 µM) | 0.12 (≈ 0.0955 µM) |  |  |  |  |  |  |  |  |  |  |  | MIC (S. pneumoniae UC41; [10]): 0.12 µg/mL (≈ 0.0955 µM); MIC (S. haemolyticus L 602; [14]): 0.5 µg/mL (≈ 0.398 µM); MIC (S. faecalis ATCC 7080; [11]): 0.25 µg/mL (≈ 0.199 µM); MIC (E. coli SKF 12140; [12]): > 128 µg/mL; MIC (P. aeruginosa ISM; [13]): > 128 µg/mL
CC(O)C(C)NC1C(=O)NC2Cc3ccc(c(Cl)c3)Oc3cc4cc(c3O)Oc3ccc(cc3Cl)C(O)C3NC(=O)C(NC(=O)C4NC(=O)C(NC2=O)c2cc(O)cc(c2)Oc2cc1ccc2O)c1ccc(O)c(c1)-c1c(O)cc(O)cc1C(C(=O)O)NC3=O (stereo not drawn) [Compound 8, N¹⁵-(1-methyl-2-hydroxy)propyl teicoplanin aglycon] | 0.86 | 0.12 (≈ 0.0944 µM) | 0.12 (≈ 0.0944 µM) | 2 |  |  | > 128 | 0.06 (≈ 0.0472 µM) | 0.12 (≈ 0.0944 µM) |  |  |  |  |  |  |  |  |  |  |  | MIC (S. pneumoniae UC41; [10]): 0.25 µg/mL (≈ 0.197 µM); MIC (S. haemolyticus L 602; [14]): 0.5 µg/mL (≈ 0.393 µM); MIC (S. faecalis ATCC 7080; [11]): 0.12 µg/mL (≈ 0.0944 µM); MIC (E. coli SKF 12140; [12]): > 128 µg/mL; MIC (P. aeruginosa ISM; [13]): > 128 µg/mL
N¹⁵-(1-methyl-2-hydroxy)ethyl teicoplanin [Compound 6] |  |  |  |  |  |  |  |  |  | 0.25 | 1 | 2 | >128 | 0.5 | 0.12 | 0.25 | 1.6 | 0.12 | >128 | >128 | 
N¹⁵-(1-methyl-2-hydroxy)propyl) teicoplanin [Compound 2] |  |  |  |  | 5.05 | 6.35 |  |  |  | 0.5 | 1 | 2 | >128 | 0.25 | 0.06 | 0.25 | 16 | 0.12 | >128 | >128 | 
N¹⁵-(2,3-Dihydroxy)propyl teicoplanin [Compound 1] |  |  |  |  | 4.7 | 6 |  |  |  | 0.5 | 2 | 2 | >128 | 0.25 | 0.06 | 0.25 | 32 | 0.12 | >128 | >128 | 
N¹⁵-(2-dimethylamino)ethyl teicoplanin [Compound 3] |  |  |  |  | 4.85 | 6.2 |  |  |  | 0.125 | 0.5 | 0.5 | >128 | 0.125 | 0.125 | 0.125 | 2 | 0.125 | >128 | >128 | ED50 (S. pyogenes L 49; S. pyogenes L 49, o.s.): >300 mg/kg; ED50 (S. pyogenes L 49; S. pyogenes L 49, s.c.): 0.41 mg/kg; pK₃ (Acid-base titration): 8.45
N¹⁵-(2-methoxyethoxy)methyl teicoplanin [Compound 4] |  |  |  |  |  |  |  |  |  | 0.12 | 0.5 | 1 | >128 | 0.125 | 0.06 | 0.125 | 8 | 0.125 | >128 | >128 | 
